pKi: −log10 of the molar value. Where two headings read alike, the source gives them in different places.
Assays:
[1] = molecular target: T1, Human muscarinic receptor M1 (Homo sapiens, UniProt P11229); test: Human muscarinic receptor assay M1, [3H]pirenzepine binding; conditions: 2 nM [3H]pirenzepine, cell membrane homogenates
T1 construct: host or cells: cell membrane homogenates
T1 sequence (P11229 1-460): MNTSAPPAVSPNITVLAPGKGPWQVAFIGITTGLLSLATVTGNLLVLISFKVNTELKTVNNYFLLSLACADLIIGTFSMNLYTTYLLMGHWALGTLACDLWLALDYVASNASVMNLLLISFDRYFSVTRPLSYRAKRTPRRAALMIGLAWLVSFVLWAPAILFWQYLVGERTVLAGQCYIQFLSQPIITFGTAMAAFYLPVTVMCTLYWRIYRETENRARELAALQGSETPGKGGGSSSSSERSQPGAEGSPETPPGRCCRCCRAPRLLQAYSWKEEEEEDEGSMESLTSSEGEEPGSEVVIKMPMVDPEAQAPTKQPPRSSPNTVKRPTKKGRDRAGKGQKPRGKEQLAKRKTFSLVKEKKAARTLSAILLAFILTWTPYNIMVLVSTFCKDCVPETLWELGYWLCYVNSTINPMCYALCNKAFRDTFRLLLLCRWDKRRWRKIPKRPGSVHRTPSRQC
Procedure: (§1) Human Muscarinic Receptor Assay
(§2) Cell membrane homogenates (45 μg protein) are incubated for 60 min at 22° C. with 2 nM [3H]pirenzepine in the absence or presence of the test compound in a buffer containing 50 mM Tris-HCl (pH 7.4), 120 mM NaCl, 5 mM KCl, 5 mM MgCl2 and 1 mM EDTA. Nonspecific binding is determined in the presence of 1 μM atropine. Following incubation, the samples are filtered rapidly under vacuum through glass fiber filters (GF/B, Packard) presoaked with 0.3% PEI and rinsed several times with ice-cold 50 mM Tris-HCl using a 96-sample cell harvester (Unifilter, Packard). The filters are dried then counted for radioactivity in a scintillation counter (Topcount, Packard) using a scintillation cocktail (Microscint 0, Packard). The results are expressed as a percent inhibition of the control radioligand specific binding. The standard reference compound is pirenzepine, which is tested in each experiment at several concentrations to obtain a competition curve from which its Ki and IC50 are calculated.

[2] = molecular target: T2, Human muscarinic receptor M2 (Homo sapiens, UniProt P08172); test: Human muscarinic receptor assay M2, [3H]AF-DX 384 binding; conditions: for inhibition at 1 µM: read-out: percent inhibition of the control radioligand specific binding, M2
T2 construct: host or cells: cell membrane homogenates
T2 sequence (P08172 1-466): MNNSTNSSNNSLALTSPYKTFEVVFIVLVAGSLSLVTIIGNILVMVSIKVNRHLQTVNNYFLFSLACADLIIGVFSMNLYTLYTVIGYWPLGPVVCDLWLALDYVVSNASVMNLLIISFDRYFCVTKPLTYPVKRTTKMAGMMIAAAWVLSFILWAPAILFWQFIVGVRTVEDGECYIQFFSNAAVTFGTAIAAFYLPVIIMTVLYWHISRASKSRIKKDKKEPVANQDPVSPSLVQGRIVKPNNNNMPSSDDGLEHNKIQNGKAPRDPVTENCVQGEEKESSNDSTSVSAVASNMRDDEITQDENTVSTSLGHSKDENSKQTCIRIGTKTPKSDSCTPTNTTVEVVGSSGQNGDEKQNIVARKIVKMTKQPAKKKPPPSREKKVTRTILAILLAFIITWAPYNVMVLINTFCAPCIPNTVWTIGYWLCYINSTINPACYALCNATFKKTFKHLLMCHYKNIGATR
Procedure: as §1
as §2, with “(60” for “(45”, “[3H]AF-DX 384” for “[3H]pirenzepine”, “methoctramine,” for “pirenzepine,”

[3] = molecular target: T3, Human muscarinic receptor M3 (Homo sapiens, UniProt P20309); test: Human muscarinic receptor assay M3, [3H]4-DAMP binding; conditions: for pKi: 0.2 nM [3H]4-DAMP, cell membrane homogenates
T3 construct: host or cells: cell membrane homogenates
T3 sequence (P20309 whole entry): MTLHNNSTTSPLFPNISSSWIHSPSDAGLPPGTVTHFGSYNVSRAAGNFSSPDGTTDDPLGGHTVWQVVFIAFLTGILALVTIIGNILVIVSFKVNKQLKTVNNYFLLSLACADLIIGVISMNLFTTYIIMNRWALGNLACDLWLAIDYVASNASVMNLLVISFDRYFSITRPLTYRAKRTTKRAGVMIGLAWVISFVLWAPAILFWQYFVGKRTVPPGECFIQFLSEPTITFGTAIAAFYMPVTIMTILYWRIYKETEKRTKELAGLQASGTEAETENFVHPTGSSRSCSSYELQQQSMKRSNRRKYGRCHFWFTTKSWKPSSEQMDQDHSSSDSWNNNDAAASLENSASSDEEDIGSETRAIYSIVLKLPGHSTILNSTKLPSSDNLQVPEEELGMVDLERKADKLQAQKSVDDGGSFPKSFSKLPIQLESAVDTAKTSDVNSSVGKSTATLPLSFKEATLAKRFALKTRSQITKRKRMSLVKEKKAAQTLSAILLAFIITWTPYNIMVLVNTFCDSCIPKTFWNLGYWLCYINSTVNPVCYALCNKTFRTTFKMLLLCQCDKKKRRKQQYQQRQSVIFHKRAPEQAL
Procedure: as §1
(§3) Cell membrane homogenates (8 μg protein) are incubated for 60 min at 22° C. with 0.2 nM [3H]4-DAMP in the absence or presence of the test compound in a buffer containing 10 mM Tris-HCl (pH 7.4) and 2 mM EDTA. Nonspecific binding is determined in the presence of 1 μM atropine. Following incubation, the samples are filtered rapidly under vacuum through glass fiber filters (GF/B, Packard) presoaked with 0.3% PEI and rinsed several times with ice-cold 50 mM Tris-HCl using a 96-sample cell harvester (Unifilter, Packard). The filters are dried then counted for radioactivity in a scintillation counter (Topcount, Packard) using a scintillation cocktail (Microscint 0, Packard). The results are expressed as a percent inhibition of the control radioligand specific binding. The standard reference compound is 4-DAMP, which is tested in each experiment at several concentrations to obtain a competition curve from which its Ki and IC50 are calculated.

[4] = molecular target: T4, Human muscarinic receptor M4 (Homo sapiens, UniProt P08173); test: Human muscarinic receptor assay M4, [3H]4-DAMP binding
T4 construct: host or cells: cell membrane homogenates
T4 sequence (P08173 1-479): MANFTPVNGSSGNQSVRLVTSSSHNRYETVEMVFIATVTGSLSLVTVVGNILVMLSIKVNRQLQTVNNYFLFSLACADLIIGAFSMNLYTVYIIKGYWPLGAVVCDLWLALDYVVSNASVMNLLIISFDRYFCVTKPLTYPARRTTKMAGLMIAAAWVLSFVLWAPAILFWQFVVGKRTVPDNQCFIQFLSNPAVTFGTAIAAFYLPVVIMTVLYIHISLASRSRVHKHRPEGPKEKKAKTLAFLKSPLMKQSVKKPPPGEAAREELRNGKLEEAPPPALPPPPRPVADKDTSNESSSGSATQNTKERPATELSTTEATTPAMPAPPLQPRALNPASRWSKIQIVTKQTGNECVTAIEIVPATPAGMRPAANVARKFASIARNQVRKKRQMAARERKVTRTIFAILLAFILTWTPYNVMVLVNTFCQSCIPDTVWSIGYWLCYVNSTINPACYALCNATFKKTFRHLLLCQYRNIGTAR
Procedure: as §1
as §3, with “(16” for “(8”

[5] = molecular target: T5, Human muscarinic receptor M5 (Homo sapiens, UniProt P08912); test: Human muscarinic receptor assay M5, [3H]4-DAMP binding
T5 construct: host or cells: cell membrane homogenates
T5 sequence (P08912 1-532): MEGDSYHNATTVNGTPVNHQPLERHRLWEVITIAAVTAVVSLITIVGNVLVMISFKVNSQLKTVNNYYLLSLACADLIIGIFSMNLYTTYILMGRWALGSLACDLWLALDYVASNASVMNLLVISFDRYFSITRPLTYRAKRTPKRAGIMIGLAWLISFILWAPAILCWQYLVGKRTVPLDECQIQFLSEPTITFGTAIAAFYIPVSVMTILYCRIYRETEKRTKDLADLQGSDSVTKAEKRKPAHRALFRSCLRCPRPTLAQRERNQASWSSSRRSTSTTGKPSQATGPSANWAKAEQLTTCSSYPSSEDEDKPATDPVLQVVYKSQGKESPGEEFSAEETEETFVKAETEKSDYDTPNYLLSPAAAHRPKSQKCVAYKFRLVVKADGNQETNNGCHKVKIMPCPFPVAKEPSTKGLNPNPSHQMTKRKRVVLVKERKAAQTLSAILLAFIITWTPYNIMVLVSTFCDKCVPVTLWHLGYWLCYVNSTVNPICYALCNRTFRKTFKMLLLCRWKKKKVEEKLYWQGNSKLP
Procedure: as §1
as §3, with “(15” for “(8”, “0.3” for “0.2”

[6] = topical 1% drop; cited from earlier work
[7] = 0.3 nM [3H]4-DAMP, cell membrane homogenates, read-out: Ki M5

With CN1C2CCC1CC(OC(=O)C(F)(CO)c1ccccc1)C2 (stereo not shown) as the compound, how does the pKi [1] read?
Its pKi is 8.46.

And the pKi [2]?
Its pKi is 7.82.

And the pKi [3]?
Its pKi is 8.54.

And the pKi [4]?
The pKi was 9.32.

What about the pKi [5] of the same compound?
The pKi was 9.15.

With COc1ccc(CC(CO)(C(=O)OC2CC3CCC(C2)N3C)c2ccccc2)cc1 (stereo not shown) as the compound, how does the pKi [1] read?
The pKi was 6.24.

What about the inhibition at 1 µM [2] of the same compound?
The inhibition at 1 µM was < 50%.

What about the pKi [3] of the same compound?
Its pKi is 6.21.

And the inhibition at 1 µM ([4]; read-out: percent inhibition of the control radioligand specific binding, M4)?
Its inhibition at 1 µM is < 50%.

And the pKi [5, 7]?
Its pKi is 6.49.

Which results are given for CN1C2CCC1CC(OC(=O)C(C)(CO)c1cccs1)C2 (stereo not shown)?
pKi [1]: 8.60; pKi [2]: 8.10; pKi [3]: 9.11; pKi [4]: 9.41; pKi [5]: 9.15

Which results are given for COCC(C)(C(=O)OC1CC2CCC(C1)N2C)c1ccccc1 (stereo not shown)?
pKi [1]: 7.72; pKi [2]: 7.14; pKi [3]: 7.89; pKi [4]: 8.13; pKi [5]: 8.07

With CN1C2CCC1CC(OC(=O)C(C)(CF)c1ccccc1)C2 (stereo not shown) as the compound, how does the pKi [1] read?
Its pKi is 7.57.

And the pKi [2]?
Its pKi is 6.96.

And the pKi [3]?
Its pKi is 7.85.

What about the pKi [4] of the same compound?
The pKi was 8.24.

And the pKi [5]?
Its pKi is 8.14.

With CN1C2CCC1CC(OC(=O)C(CO)(CO)c1ccccc1)C2 (stereo not shown) as the compound, how does the pKi [1] read?
The pKi was 7.77.

And the pKi [2]?
The pKi was 7.27.

And the pKi [3]?
Its pKi is 8.39.

What about the pKi [4] of the same compound?
Its pKi is 8.52.

What about the pKi [5] of the same compound?
The pKi was 8.35.

Which results are given for CN1C2CCC1CC(NC(=O)C(C)(CO)c1ccccc1)C2 (stereo not shown)?
pKi [1]: 6.64; inhibition at 1 µM [2]: < 50%; pKi [3]: 6.82; pKi [4]: 7.08; pKi [5]: 7.28

With CCC(CO)(C(=O)OC1CC2CCC(C1)N2C)c1ccccc1 (stereo not shown) as the compound, how does the pKi [1] read?
The pKi was 8.36.

And the pKi [2]?
The pKi was 7.46.

And the pKi [3]?
Its pKi is 8.89.

And the pKi [4]?
The pKi was 9.15.

What about the pKi [5] of the same compound?
The pKi was 8.96.

With CN1C2CCC1CC(OC(=O)C(CO)(CC1CC1)c1ccccc1)C2 (stereo not shown) as the compound, how does the pKi [1] read?
The pKi was 8.47.

And the pKi [2]?
Its pKi is 7.41.

What about the pKi [3] of the same compound?
The pKi was 8.89.

What about the pKi [4] of the same compound?
Its pKi is 9.24.

And the pKi [5]?
Its pKi is 9.00.

With CN1C2CCC1CC(OC(=O)C(C)(CO)c1ccccc1)C2 (stereo not shown) as the compound, how does the pKi [1] read?
The pKi was 8.51.

What about the pKi [2] of the same compound?
The pKi was 7.96.

What about the pKi [3] of the same compound?
The pKi was 8.70.

What about the pKi [4] of the same compound?
Its pKi is 9.24.

And the pKi [5]?
The pKi was 9.17.

Which “efficacy in the treatment of myopia” value [6] does the source give for CN1[C@@H]2CC[C@H]1C[C@@H](OC(=O)C(CO)c1ccccc1)C2 (stereo partly shown) [atropine] here?
The value was “effective”.

What about the side effects [6] of the same compound?
The side effects was “numerous side effects were reported, including mydriasis (dilation of the pupil) and blurring of near vision due to cycloplegia”.

With CN1C2CCC1CC(OC(=O)C(CO)(CC(F)(F)F)c1ccccc1)C2 (stereo not shown) as the compound, how does the pKi [1] read?
Its pKi is 8.09.

And the pKi ([2]; 2 nM [3H]AF-DX 384, cell membrane homogenates, read-out: Ki M2)?
The pKi was 6.62.

What about the pKi [3] of the same compound?
The pKi was 8.70.

What about the pKi [4] of the same compound?
The pKi was 8.77.

What about the pKi [5] of the same compound?
The pKi was 8.72.

With CN1C2CCC1CC(OC(=O)C(CO)(Cc1ccccc1)c1ccccc1)C2 (stereo not shown) as the compound, how does the pKi [1] read?
The pKi was 6.22.

What about the inhibition at 1 µM [2] of the same compound?
Its inhibition at 1 µM is < 50%.

And the inhibition at 1 µM ([3]; @ 1 μM, read-out: percent inhibition of the control radioligand specific binding, M3)?
Its inhibition at 1 µM is < 50%.

And the pKi ([4]; 0.2 nM [3H]4-DAMP, cell membrane homogenates, read-out: Ki M4)?
The pKi was 6.64.

And the pKi [5, 7]?
The pKi was 6.55.

What does the source list for CN1C2CCC1CC(OC(=O)C(CO)(Cc1ccc(F)cc1)c1ccccc1)C2 (stereo not shown)?
pKi [1]: 6.52; inhibition at 1 µM [2]: < 50%; pKi [3]: 6.51; pKi [4]: 6.70; pKi [5]: 6.80
